For this assay, the target named is IspG (GcpE) (Thermus thermophilus, UniProt Q5SLI8). Put plainly: co-crystal X-ray structure. Type of assay: biochemical.

SMILES strings stand for the structures.

Sequence of IspG (GcpE) (Q5SLI8 whole entry): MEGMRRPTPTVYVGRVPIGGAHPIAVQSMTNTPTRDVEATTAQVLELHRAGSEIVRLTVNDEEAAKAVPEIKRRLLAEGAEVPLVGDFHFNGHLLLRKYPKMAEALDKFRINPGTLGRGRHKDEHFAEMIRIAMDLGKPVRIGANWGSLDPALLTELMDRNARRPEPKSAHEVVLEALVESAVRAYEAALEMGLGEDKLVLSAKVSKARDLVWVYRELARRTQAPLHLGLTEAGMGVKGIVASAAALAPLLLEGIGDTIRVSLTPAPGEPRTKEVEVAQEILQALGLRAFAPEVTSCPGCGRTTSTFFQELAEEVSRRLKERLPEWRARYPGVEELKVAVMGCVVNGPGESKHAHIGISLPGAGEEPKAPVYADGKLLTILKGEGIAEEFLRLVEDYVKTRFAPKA

Regarding `O=P(O)(O)OP(=O)(O)O` [compound 6, diphosphate], inhibition was half-maximal at 20 µM (IC50).

Values taken from paper PMC4433817 (Journal of molecular biology, 2015).
